Reference: paper PMC6751662, “Pharmacological and functional similarities of the human neuropeptide Y system in C. elegans challenges phylogenetic views on the FLP/NPR system” (Cell Communication and Signaling : CCS, 2019)

Experiments:
NPR-6 = experiment: IP accumulation assay, chimeric GαΔ6qi4myr, NPR-6; assay type: cell-based, C. elegans; settings: 1 h, HBSS + 20 mM LiCl, HEK293 receptor + GαΔ6qi4myr, HTRF IP-One
Procedure: (§1) For measuring IP accumulation, HEK293 cells grown to 70–80% confluency in 6-well plates were transiently co-transfected using Metafectene Pro (2.5 μl/μg DNA; Biontex) with plasmids containing receptor and/or mock (empty pcDNA3.1) (for endogenous Gq-coupling) using 4 μg total DNA in a ratio of 3:1 following the manufacturer’s instructions. For testing Gα16- and GαΔ6qi4myr-coupling, plasmids encoding the corresponding Gα protein were co-transfected instead of mock. Gα16 is naturally promiscuous and stimulates the phospholipase C (PLC) pathway leading to IP production, while the exchange of the C-terminal four amino acids of Gαq for the corresponding residues of Gαi1 in the chimeric GαΔ6qi4myr confers the ability to couple to Gi/o protein-preferring receptors but still stimulate PLC, thus specifically redirecting downstream cellular signaling. 16 h post transfection, the cells were seeded into white 384-well plates at a density of 20,000 cells/well. Media was removed 24 h later and the cells were incubated with the indicated concentration of peptides for 1 h in HBSS + 20 mM LiCl. IP accumulation was measured with the HTRF-based IP-One Gq kit (Cisbio) on a microplate reader (Tecan Spark).
(§2) For in vitro activation, data is presented as mean ± SEM of at least three independent experiments conducted in technical triplicate. […] For the C. elegans NPRs, we considered the strongest response elicited by any of the peptides downstream of a particular receptor as the receptor’s maximal signal. This may or may not be the biological maximum that can be reached by the ‘true’ endogenous agonist. For the human receptors, the response to the established endogenous agonist reflected the maximal signal.

NPR-1 = target: T1, NPR-1 (Caenorhabditis elegans, UniProt Q18534); experiment: IP accumulation assay, chimeric GαΔ6qi4myr, NPR-1; assay type: cell-based, C. elegans; design: expressed in transfected cells; host or cells: HEK293; settings: 1 h, HBSS + 20 mM LiCl, HEK293 receptor + GαΔ6qi4myr, HTRF IP-One
T1 sequence (Q18534 1-457): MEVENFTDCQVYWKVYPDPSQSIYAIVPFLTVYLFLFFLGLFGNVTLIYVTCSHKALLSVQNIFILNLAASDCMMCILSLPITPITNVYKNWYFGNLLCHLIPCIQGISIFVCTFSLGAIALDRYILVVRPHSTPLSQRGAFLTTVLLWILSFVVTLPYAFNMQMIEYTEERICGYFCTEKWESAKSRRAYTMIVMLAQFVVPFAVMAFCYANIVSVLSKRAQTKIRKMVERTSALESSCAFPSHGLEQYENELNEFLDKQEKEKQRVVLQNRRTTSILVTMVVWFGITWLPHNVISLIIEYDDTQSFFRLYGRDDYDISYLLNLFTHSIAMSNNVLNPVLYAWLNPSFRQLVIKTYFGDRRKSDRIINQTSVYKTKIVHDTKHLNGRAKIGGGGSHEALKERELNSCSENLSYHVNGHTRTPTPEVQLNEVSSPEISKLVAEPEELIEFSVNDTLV
Procedure: as §1, §2

NPR-4b = target: T2, NPR-4b (Caenorhabditis elegans, UniProt A0A078BTK0); experiment: IP accumulation assay, chimeric GαΔ6qi4myr, NPR-4b; assay type: cell-based, C. elegans; settings: 1 h, HBSS + 20 mM LiCl, HEK293 receptor + GαΔ6qi4myr, HTRF IP-One
T2 sequence (A0A078BTK0 1-376): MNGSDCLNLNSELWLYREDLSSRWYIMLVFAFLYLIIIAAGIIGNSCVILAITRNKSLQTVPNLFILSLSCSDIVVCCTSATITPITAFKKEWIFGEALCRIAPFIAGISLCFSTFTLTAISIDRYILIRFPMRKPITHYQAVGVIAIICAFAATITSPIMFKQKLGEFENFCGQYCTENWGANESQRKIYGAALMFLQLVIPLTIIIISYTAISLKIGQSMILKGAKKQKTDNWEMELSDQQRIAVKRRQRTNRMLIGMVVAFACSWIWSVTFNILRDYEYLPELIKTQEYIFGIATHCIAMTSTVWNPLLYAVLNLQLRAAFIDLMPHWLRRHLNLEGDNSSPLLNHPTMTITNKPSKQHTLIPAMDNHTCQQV
Procedure: as §1, §2

NPR-5b = target: T3, NPR-5b (Caenorhabditis elegans, UniProt Q6F3C9); experiment: IP accumulation assay (Table S8), NPR-5b; assay type: cell-based, C. elegans; settings: 1 h, HBSS + 20 mM LiCl, transfected HEK293, Table S8 (title: chimeric GαΔ6qi4myr), HTRF IP-One, mean of >=3 independent experiments
T3 sequence (Q6F3C9 1-433): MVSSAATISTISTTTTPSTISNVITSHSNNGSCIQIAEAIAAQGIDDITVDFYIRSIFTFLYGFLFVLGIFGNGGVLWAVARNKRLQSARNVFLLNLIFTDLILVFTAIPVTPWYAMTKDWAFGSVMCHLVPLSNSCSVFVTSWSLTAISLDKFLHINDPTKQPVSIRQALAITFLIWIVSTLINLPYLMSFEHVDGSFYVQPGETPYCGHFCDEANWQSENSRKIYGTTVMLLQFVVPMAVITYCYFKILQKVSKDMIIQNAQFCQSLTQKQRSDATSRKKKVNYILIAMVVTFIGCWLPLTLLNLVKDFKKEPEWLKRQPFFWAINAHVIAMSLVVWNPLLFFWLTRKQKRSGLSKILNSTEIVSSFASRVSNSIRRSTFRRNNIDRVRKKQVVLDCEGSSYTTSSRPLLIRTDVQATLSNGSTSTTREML
Procedure: as §1, §2

NPR-11 = target: T4, NPR-11 (Caenorhabditis elegans, UniProt Q18179); experiment: IP accumulation assay, chimeric GαΔ6qi4myr, NPR-11; assay type: cell-based, C. elegans; settings: 1 h, HBSS + 20 mM LiCl, HEK293 receptor + GαΔ6qi4myr, HTRF IP-One
T4 construct: expressed in transfected cells; host or cells: HEK293, transient
T4 sequence (Q18179 1-402): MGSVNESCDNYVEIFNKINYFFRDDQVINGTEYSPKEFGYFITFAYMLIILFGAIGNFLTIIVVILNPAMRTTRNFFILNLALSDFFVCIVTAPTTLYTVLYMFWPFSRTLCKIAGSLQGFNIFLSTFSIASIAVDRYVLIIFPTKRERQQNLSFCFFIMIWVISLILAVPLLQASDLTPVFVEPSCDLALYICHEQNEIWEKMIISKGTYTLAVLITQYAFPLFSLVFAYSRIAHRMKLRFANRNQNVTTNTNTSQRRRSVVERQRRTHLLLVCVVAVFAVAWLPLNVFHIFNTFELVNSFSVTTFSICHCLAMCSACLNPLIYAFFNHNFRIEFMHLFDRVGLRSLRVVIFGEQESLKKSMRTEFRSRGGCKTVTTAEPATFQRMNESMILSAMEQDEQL
Procedure: as §1, §2

[1] = system: mock (empty vector) transfected HEK293 cells; experiment: IP accumulation assay, negative control: empty vector (mock) instead of the receptor; assay type: cell-based, Homo sapiens; settings: 1 h, HBSS + 20 mM LiCl, HEK293 with empty vector instead of receptor (negative control), HTRF IP-One, mean of >=3 independent experiments
Procedure: as §1, §2

[2] = 0.1 µM peptide (Table S8), mean of >=3 independent experiments
[3] = 10 µM peptide, mean of >=3 independent experiments (Tables S5 and S8)
[4] = 0.1 nM peptide (Table S5), mean of >=3 independent experiments

Substance | IP accumulation with GαΔ6qi4myr, NPR-6 (NPR-6; [2]) | IP accumulation with GαΔ6qi4myr, NPR-6 (NPR-6; [3]) | IP accumulation with GαΔ6qi4myr, NPR-1 (NPR-1; [2]) | IP accumulation with GαΔ6qi4myr, NPR-1 (NPR-1; [3]) | IP accumulation with GαΔ6qi4myr, NPR-4b (NPR-4b; [2]) | IP accumulation with GαΔ6qi4myr, NPR-4b (NPR-4b; [3]) | IP accumulation, NPR-5b (NPR-5b; 0.1 µM peptide) | IP accumulation, NPR-5b (NPR-5b; 10 µM peptide) | IP accumulation with GαΔ6qi4myr, NPR-11 (NPR-11; [2]) | IP accumulation with GαΔ6qi4myr, NPR-11 (NPR-11; [3]) | IP accumulation, mock ([1]; 0.1 µM peptide) | IP accumulation, mock ([1]; 10 µM peptide) | IP assay endog. Gαq + GαΔ6qi4myr, NPR-6 (NPR-6; [4]) | IP assay endog. Gαq + GαΔ6qi4myr, NPR-1 (NPR-1; [4]) | IP assay endog. Gαq + GαΔ6qi4myr, NPR-4b (NPR-4b; [4]) | IP assay endog. Gαq + GαΔ6qi4myr, NPR-11 (NPR-11; [4])
AGSDPNFLRF-NH2 [FLP-1-2, C. elegans FMRFamide-like peptide, C-terminally amidated, synthesized by SPPS] | 1.14 x-fold of basal | 5.19 x-fold of basal | 1.03 x-fold of basal | 0.98 x-fold of basal | 2.48 x-fold of basal | 8.55 x-fold of basal | 0.99 x-fold of basal | 1.80 x-fold of basal | 0.92 x-fold of basal | 6.48 x-fold of basal | 4.14 x-fold of basal | 1.78 x-fold of basal |  |  |  | 
APKPKFIRF-NH2 [FLP-5-1, C. elegans FMRFamide-like peptide, C-terminally amidated, synthesized by SPPS] | 0.96 x-fold of basal | 0.98 x-fold of basal | 0.88 x-fold of basal | 0.93 x-fold of basal | 2.00 x-fold of basal | 5.53 x-fold of basal | 0.91 x-fold of basal | 1.45 x-fold of basal | 1.03 x-fold of basal | 6.49 x-fold of basal | 1.08 x-fold of basal | 1.01 x-fold of basal | 0.96 x-fold of basal | 0.88 x-fold of basal | 2.00 x-fold of basal | 1.03 x-fold of basal
ASPSFIRF-NH2 [FLP-4-2, C. elegans FMRFamide-like peptide, C-terminally amidated, synthesized by SPPS] | 0.96 x-fold of basal | 1.19 x-fold of basal | 0.83 x-fold of basal | 0.89 x-fold of basal | 4.71 x-fold of basal | 12.66 x-fold of basal | 0.90 x-fold of basal | 1.98 x-fold of basal | 1.03 x-fold of basal | 2.79 x-fold of basal | 0.75 x-fold of basal | 0.75 x-fold of basal |  |  |  | 
NPENDTPFGTMRF-NH2 [FLP-3-4, C. elegans FMRFamide-like peptide, C-terminally amidated, synthesized by SPPS] | 1.04 x-fold of basal | 5.43 x-fold of basal | 0.98 x-fold of basal | 0.94 x-fold of basal | 4.77 x-fold of basal | 11.46 x-fold of basal | 1.19 x-fold of basal | 8.18 x-fold of basal | 0.92 x-fold of basal | 1.17 x-fold of basal | 1.08 x-fold of basal | 1.16 x-fold of basal |  |  |  | 
